Data set [1] deals with DNA topoisomerase 2-alpha (Homo sapiens) (UniProt P11388). The data set can be described thus: Inhibition of DNA topoisomerase-2 (unknown origin) assessed as inhibition of pBR322 DNA relaxation at 100 uM by agarose gel electrophoresis.
Data set [2] has as its system A549. Description: Induction of apoptosis in human A549 cells assessed as cell shrinkage after 48 hrs by confocal microscopic analysis. The data set is classed as functional, cell-based.
The subject of data set [3] is A549. Description: Cell cycle arrest in human A549 cells assessed as accumulation at G2/M phase at 5 uM after 48 hrs by propidium iodide staining-based FACS flow cytometric analysis (reference value: 16.4%). The data set is classed as functional.
The subject of data set [4] is A549. Description: Cell cycle arrest in human A549 cells assessed as accumulation at G2/M phase at 5 uM after 24 hrs by propidium iodide staining-based FACS flow cytometric analysis (reference value: 16.4%). The data set is classed as functional. For orientation: In flow cytometry, cells or beads pass a laser one at a time.
The subject of data set [5] is A549. Description: Cell cycle arrest in human A549 cells assessed as accumulation at S phase at 5 uM after 48 hrs by propidium iodide staining-based FACS flow cytometric analysis (reference value: 25.5%). The data set is classed as functional.
The subject of data set [6] is A549. Description: Cell cycle arrest in human A549 cells assessed as accumulation at S phase at 5 uM after 24 hrs by propidium iodide staining-based FACS flow cytometric analysis (reference value: 25.5%). The data set is classed as functional.
The subject of data set [7] is A549. Description: Cell cycle arrest in human A549 cells assessed as accumulation at G1 phase at 5 uM after 48 hrs by propidium iodide staining-based FACS flow cytometric analysis (reference value: 58.1%). The data set is classed as functional.
Data set [8] has as its system A549. Description: Cell cycle arrest in human A549 cells assessed as accumulation at G1 phase at 5 uM after 24 hrs by propidium iodide staining-based FACS flow cytometric analysis (reference value: 58.1%). The data set is classed as functional.
Data set [9] relates to A549. Description: Cell cycle arrest in human A549 cells assessed as accumulation at sub-G1 phase at 5 uM after 48 hrs by propidium iodide staining-based FACS flow cytometric analysis (reference value: 1.5%). The data set is classed as functional.
In data set [10] the test system is A549. The data set can be described thus: Cell cycle arrest in human A549 cells assessed as accumulation at sub-G1 phase at 5 uM after 24 hrs by propidium iodide staining-based FACS flow cytometric analysis (reference value: 1.5%). The data set is classed as functional.
Data set [11] relates to A549. Description: Induction of apoptosis in human A549 cells assessed as nuclear condensation after 48 hrs by DAPI staining-based confocal microscopic analysis. The data set is classed as functional, cell-based.
The subject of data set [12] is A549. Description: Induction of apoptosis in human A549 cells assessed as nuclear DNA fragmentation after 48 hrs by DAPI staining-based confocal microscopic analysis. The data set is classed as functional, cell-based.
The test system of data set [13] is A549. Description: Induction of apoptosis in human A549 cells assessed as appearance of round, short and dense microtubule networks after 48 hrs by confocal microscopic analysis. The data set is classed as functional, cell-based.
The test system of a further data set is HCT-8. Description: Cytotoxicity against human HCT8 cells assessed as growth inhibition after 48 hrs by MTT assay. The data set is classed as functional, cell-based. The conditions noted are these: HCT-8, 48 h. In general terms: Tetrazolium assays rely on reduction of a dye to a coloured formazan, in cell work by metabolically active cells.
Data set [14] has as its system A549. The data set can be described thus: Cytotoxicity against human A549 cells assessed as growth inhibition after 48 hrs by MTT assay. The data set is classed as functional, cell-based. The conditions noted are these: A549, 48 h.
A further data set deals with HL-60. The data set can be described thus: Cytotoxicity against human HL60 cells assessed as growth inhibition after 48 hrs by CCK-8 assay. The data set is classed as functional, cell-based. The conditions noted are these: HL-60, 48 h.
For the next data set, the system named is HeLa. The data set can be described thus: Cytotoxicity against human HeLa cells assessed as growth inhibition after 48 hrs by MTT assay. The data set is classed as functional, cell-based.
Data set [15] is described as follows: Solubility of the compound in water. The data set is classed as physicochemical. The conditions noted are these: buffer.

Active and inactive are the calls of the source. The calls are words filed in the database; no cut-off is given here.

Chain of DNA topoisomerase 2-alpha (Homo sapiens) (P11388 whole entry): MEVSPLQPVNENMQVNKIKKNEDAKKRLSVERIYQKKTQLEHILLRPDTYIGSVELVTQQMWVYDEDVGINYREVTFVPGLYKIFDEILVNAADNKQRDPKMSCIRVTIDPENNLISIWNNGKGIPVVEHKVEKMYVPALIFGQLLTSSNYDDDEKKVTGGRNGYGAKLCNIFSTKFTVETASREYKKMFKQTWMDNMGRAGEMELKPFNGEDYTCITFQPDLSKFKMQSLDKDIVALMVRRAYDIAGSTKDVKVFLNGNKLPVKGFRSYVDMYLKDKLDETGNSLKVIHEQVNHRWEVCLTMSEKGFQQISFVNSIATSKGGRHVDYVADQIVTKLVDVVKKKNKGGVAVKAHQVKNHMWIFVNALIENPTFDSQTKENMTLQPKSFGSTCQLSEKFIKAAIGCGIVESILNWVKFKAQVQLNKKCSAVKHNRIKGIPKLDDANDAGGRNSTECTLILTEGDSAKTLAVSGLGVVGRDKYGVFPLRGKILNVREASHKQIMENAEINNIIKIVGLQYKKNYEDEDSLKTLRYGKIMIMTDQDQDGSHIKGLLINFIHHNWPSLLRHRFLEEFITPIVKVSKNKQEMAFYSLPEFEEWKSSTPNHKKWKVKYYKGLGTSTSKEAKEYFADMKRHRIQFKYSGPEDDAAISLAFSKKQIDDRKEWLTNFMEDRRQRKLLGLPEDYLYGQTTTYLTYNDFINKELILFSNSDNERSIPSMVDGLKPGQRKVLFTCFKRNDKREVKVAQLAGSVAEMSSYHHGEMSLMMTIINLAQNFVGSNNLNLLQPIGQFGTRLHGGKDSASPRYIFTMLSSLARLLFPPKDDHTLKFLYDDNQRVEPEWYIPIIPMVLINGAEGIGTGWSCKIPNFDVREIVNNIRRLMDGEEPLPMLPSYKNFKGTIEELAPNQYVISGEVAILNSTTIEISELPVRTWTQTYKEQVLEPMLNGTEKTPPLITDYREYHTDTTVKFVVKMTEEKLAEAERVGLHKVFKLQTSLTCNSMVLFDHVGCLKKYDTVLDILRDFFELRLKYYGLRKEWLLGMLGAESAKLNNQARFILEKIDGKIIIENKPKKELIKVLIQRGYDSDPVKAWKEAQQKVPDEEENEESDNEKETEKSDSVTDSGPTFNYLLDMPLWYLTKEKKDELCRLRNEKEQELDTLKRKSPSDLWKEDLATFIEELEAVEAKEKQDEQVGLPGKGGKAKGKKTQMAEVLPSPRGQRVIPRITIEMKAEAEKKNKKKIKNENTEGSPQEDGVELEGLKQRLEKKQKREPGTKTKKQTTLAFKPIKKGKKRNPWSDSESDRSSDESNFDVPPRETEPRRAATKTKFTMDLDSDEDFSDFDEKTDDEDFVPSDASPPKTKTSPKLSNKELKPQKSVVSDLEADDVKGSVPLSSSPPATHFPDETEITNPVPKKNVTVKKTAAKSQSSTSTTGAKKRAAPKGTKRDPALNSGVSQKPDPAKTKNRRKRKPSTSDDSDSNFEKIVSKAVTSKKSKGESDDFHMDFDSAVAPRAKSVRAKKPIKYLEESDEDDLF

Turning to `COc1cc([C@@H]2c3cc4c(cc3[C@@H](n3cc(COC(=O)NC5CCCC5)nn3)[C@H]3COC(=O)[C@H]23)OCO4)cc(OC)c1O`, the inhibition result in data set [1] was “Active”. Further, the Activity entry in the data set with A549 [2] is “Dose-dependent effect”; in the data set with A549 [3], 22.2%; with A549 [4], 20.6%; with A549 [5] it was 55.1%; in the data set on A549 [6], 36.3%; in the data set on A549 [7], 22.7%. Moreover, the Activity was 43.1% with A549 [8]; 26.8% in the data set with A549 [9]; 24.3% with A549 [10]; “Dose-dependent effect” with A549 [11]; “Dose-dependent effect” in the data set with A549 [12]; “Dose-dependent effect” with A549 [13]. Also, the IC50 with HCT-8 was 0.05 µM; in the data set with A549 [14] it was 0.14 µM; with HL-60, below 0.01 µM; with HeLa it was 0.51 µM.
On to `COc1cc([C@@H]2c3cc4c(cc3[C@@H](n3cc(COC(=O)N5CCN(C6CCCC6)CC5)nn3)[C@H]3COC(=O)[C@H]23)OCO4)cc(OC)c1OC`, for which the IC50 in the data set on HCT-8 was 0.35 µM; with A549 [14] it was 8.7 µM; in the data set on HL-60 it was below 0.01 µM; in the data set on HeLa, below 0.01 µM.
For the compound `CCCNC(=O)OCc1cn([C@@H]2c3cc4c(cc3[C@@H](c3cc(OC)c(O)c(OC)c3)[C@H]3C(=O)OC[C@@H]32)OCO4)nn1`, the IC50 with HCT-8 was 16.2 µM; in the data set on A549 [14] it was 23 µM; in the data set on HL-60, 0.183 µM; in the data set with HeLa, 6.91 µM.
With `COc1cc([C@@H]2c3cc4c(cc3[C@H](O)[C@H]3COC(=O)[C@H]23)OCO4)cc(OC)c1OC` [PODOFILOX], the solubility entry in data set [15] is given as “soluble”.
As for `COc1cc([C@@H]2c3cc4c(cc3[C@@H](n3cc(COC(=O)N[C@@H](CCSC)C(=O)N5CCN(c6ccc([N+](=O)[O-])cc6)CC5)nn3)[C@H]3COC(=O)[C@H]23)OCO4)cc(OC)c1O`, the solubility result in data set [15] was “soluble”. Further, the IC50 with HCT-8 turned out to be 40.8 µM; in the data set on A549 [14], 45.6 µM; with HL-60, 15.7 µM; in the data set on HeLa, 10.3 µM.
For `COc1cc([C@@H]2c3cc4c(cc3[C@@H](O[C@@H]3O[C@@H]5CO[C@@H](C)O[C@H]5[C@H](O)[C@H]3O)[C@H]3COC(=O)[C@H]23)OCO4)cc(OC)c1O` [ETOPOSIDE], the inhibition entry in data set [1] is “Active”. Moreover, the IC50 in the data set with HCT-8 was 7.06 µM; in the data set on A549 [14], 3.2 µM; with HL-60, 1.15 µM; with HeLa, 2.91 µM.
`CCCNC(=O)OCc1cn([C@@H]2c3cc4c(cc3[C@@H](c3cc(OC)c(OC)c(OC)c3)[C@H]3C(=O)OC[C@@H]32)OCO4)nn1`: the IC50 worked out at 6.29 µM in the data set with HCT-8, 46.8 µM with A549 [14], 2.77 µM in the data set on HL-60 and 7.42 µM in the data set with HeLa.
As for `COc1cc([C@@H]2c3cc4c(cc3[C@@H](n3cc(COC(=O)N5CCN(c6ccc([N+](=O)[O-])cc6)CC5)nn3)[C@H]3COC(=O)[C@H]23)OCO4)cc(OC)c1OC`, the concentration for half-maximal inhibition (IC50) was determined as 31.3 µM in the data set with HCT-8, 56.6 µM in the data set on A549 [14], 0.625 µM in the data set with HL-60 and 6.48 µM in the data set with HeLa.
The corresponding values for `COc1cc([C@@H]2c3cc4c(cc3[C@@H](n3cc(COC(=O)N5CCOCC5)nn3)[C@H]3COC(=O)[C@H]23)OCO4)cc(OC)c1O` are 0.37 µM, 1.46 µM, 0.045 µM and 0.03 µM.
On to `COc1cc([C@@H]2c3cc4c(cc3[C@@H](n3cc(COC(=O)N5CCN(c6ccc([N+](=O)[O-])cc6)CC5)nn3)[C@H]3COC(=O)[C@H]23)OCO4)cc(OC)c1O`, for which the solubility result in data set [15] is reported as “soluble”. Besides, the IC50 was found to be 6.15 µM with HCT-8, 5.58 µM in the data set with A549 [14], 0.32 µM in the data set with HL-60 and 3.5 µM in the data set on HeLa.
For the compound `COc1cc([C@@H]2c3cc4c(cc3[C@@H](n3cc(COC(=O)N5CCN(c6ccc(F)cc6)CC5)nn3)[C@H]3COC(=O)[C@H]23)OCO4)cc(OC)c1OC`, the IC50 in the data set with HCT-8 was 1.47 µM; in the data set on A549 [14] it was 22.1 µM; in the data set on HL-60, below 0.01 µM; in the data set on HeLa, 3.84 µM.
As for `COc1cc([C@@H]2c3cc4c(cc3[C@@H](n3cc(COC(=O)NC5CCCC5)nn3)[C@H]3COC(=O)[C@H]23)OCO4)cc(OC)c1OC`, the 50% inhibitory concentration (IC50) in the data set with HCT-8 was 14.9 µM; with A549 [14] it was 14.8 µM; in the data set on HL-60, 0.375 µM; in the data set with HeLa, 1.16 µM.
The corresponding values for `COc1cc([C@@H]2c3cc4c(cc3[C@@H](n3cc(COC(=O)N5CCOCC5)nn3)[C@H]3COC(=O)[C@H]23)OCO4)cc(OC)c1OC` are 2.05 µM, 23.3 µM, 0.629 µM and 35.7 µM.
The corresponding values for `COc1cc([C@@H]2c3cc4c(cc3[C@@H](n3cc(CO)nn3)[C@H]3COC(=O)[C@H]23)OCO4)cc(OC)c1OC` are 2.76 µM, 22.1 µM, 0.298 µM and 0.92 µM.

By IC50 is commonly meant the concentration that gives 50% inhibition.

For the origin of these results see ChEMBL document CHEMBL2390892, “Synthesis and cytotoxic activity on human cancer cells of carbamate derivatives of 4β-(1,2,3-triazol-1-yl)podophyllotoxin” (Eur J Med Chem, 2013).
